Here are results for 27 compounds from patent US20110281896A1, “OPTICALLY PURE QUINAZOLINE COMPOUNDS” (Jiangsu Hansoh Pharmaceutical Co. Ltd, priority 2009, published 2011).

One test has as its system MCF-7. Nature of the test: Antitumor activity in vitro, SRB cell proliferation inhibition. The settings on record: 72 h incubation, Logit method. The class given is cell-based. As for the experimental part: (§1) Evaluation of Antitumor Activity In Vitro
(§2) Cell Strains: A431; MCF-7
(§3) Experiment Design: Cells were incubated with different concentrations of compounds for 72 hours. The inhibition of cell proliferation by the compounds was evaluated by SRB, followed by calculation of the inhibition rate. Then, value of IC50 was calculated by using-Logit method base on the inhibition rate and used to compare in vitro antitumor activity of the compounds.
(§4) Method for Calculating the Inhibition Rate: Inhibition rate (%)=(OD value of control group−OD value of drug group)/OD value of control group×100%

The test system of the next test is A431. The description is as above. The settings on record: 72 h incubation, Logit method. In kind it is cell-based. How it is done: as §1, §2, §3, §4
The mark [1] stands for this setting: Homo sapiens, MCF7, MCF-7 cells.
Where [2] appears, read: Homo sapiens, A-431, A431 cells.

pIC50: −log10 of the molar value.

As to `CS(=O)(=O)C[C@@H](N)c1ccc(-c2ccc3ncnc(Nc4ccc(OCc5cccc(F)c5)c(Cl)c4)c3c2)o1` [Compound 92, (S)—N-(4-(3-fluorobenzyl-oxy)-3-chlorophenyl)-6-(5-(1-(amino)-2-(methylsulfonyl)ethyl)furan-2-yl)quinazolin-4-amine], the results for the pIC50 in the test with MCF-7 (setting [1]) and in the test with A431 (setting [2]) were 5.03 and 6.37, respectively.
Regarding `CN[C@H](CS(C)(=O)=O)c1ccc(-c2ccc3ncnc(Nc4ccc(OCc5cccc(F)c5)c(Cl)c4)c3c2)o1` [Compound 93, (S)—N-(4-(3-fluorobenzyl-oxy)-3-chlorphenyl)-6-(5-(1-(methylamino)-2-(methylsulfonyl)ethyl)furan-2-yl)quinazolin-4-amine], the negative logarithm of the IC50 (pIC50) in the test with MCF-7 (MCF-7 cells) is 5.05; in the test with A431 (A431 cells) it was 6.34.
Turning to `CCN[C@H](CS(C)(=O)=O)c1ccc(-c2ccc3ncnc(Nc4ccc(OCc5cccc(F)c5)c(Cl)c4)c3c2)o1` [Compound 94, (S)—N-(4-(3-fluorobenzyl-oxy)-3-chlorophenyl)-6-(5-(1-(ethylamino)-2-(methylsulfonyl)ethyl)furan-2-yl)quinazolin-4-amine], the values for the negative logarithm of the IC50 (pIC50) in the test on MCF-7 (setting [1]) and in the test on A431 (setting [2]) were 5.10 and 6.19, respectively.
The matching figures for `CCCN[C@H](CS(C)(=O)=O)c1ccc(-c2ccc3ncnc(Nc4ccc(OCc5cccc(F)c5)c(Cl)c4)c3c2)o1` [Compound 95, (S)—N-(4-(3-fluorobenzyl-oxy)-3-chlorophenyl)-6-(5-(1-(propyl-amino)-2-(methylsulfonyl)ethyl)furan-2-yl)quinazolin-4-amine]: 5.10 and 6.34.
Regarding `CN(C1CC1)[C@H](CS(C)(=O)=O)c1ccc(-c2ccc3ncnc(Nc4ccc(OCc5cccc(F)c5)c(Cl)c4)c3c2)o1` [Compound 96, (S)—N-(4-(3-fluorobenzyl-oxy)-3-chlorophenyl)-6-(5-(1-(cyclopropyl-methyl-amino)-2-(methylsulfonyl)ethyl)furan-2-yl)quinazolin-4-amine], the negative-log IC50 (pIC50) with MCF-7 (setting [1]) is 5.17; with A431 (setting [2]) it was 6.24.
The matching figures for `CCN(CC)[C@H](CS(C)(=O)=O)c1ccc(-c2ccc3ncnc(Nc4ccc(OCc5cccc(F)c5)c(Cl)c4)c3c2)o1` [Compound 98, (S)—N-(4-(3-fluorobenzyl-oxy)-3-chlorophenyl)-6-(5-(1-(N,N-diethyl-amino)-2-(methyl-sulfonyl)ethyl)furan-2-yl)quinazolin-4-amine]: 5.12 and 6.17.
The like results for `CCCN(CCC)[C@H](CS(C)(=O)=O)c1ccc(-c2ccc3ncnc(Nc4ccc(OCc5cccc(F)c5)c(Cl)c4)c3c2)o1` [Compound 99, (S)—N-(4-(3-fluorobenzyl-oxy)-3-chlorophenyl)-6-(5-(1-(N,N-dipropyl-amino)-2-(methylsulfonyl)ethyl)furan-2-yl)quinazolin-4-amine] were, in that order, 5.23 and 6.12.
The like results for `CCN(C)[C@H](CS(C)(=O)=O)c1ccc(-c2ccc3ncnc(Nc4ccc(OCc5cccc(F)c5)c(Cl)c4)c3c2)o1` [Compound 100, (S)—N-(4-(3-fluorobenzyl-oxy)-3-chlorophenyl)-6-(5-(1-(N-methyl, N-ethyl-amino)-2-(methylsulfonyl)ethyl)furan-2-yl)quinazolin-4-amine] were, in that order, 5.00 and 6.31.
For `C=CCN[C@H](CS(C)(=O)=O)c1ccc(-c2ccc3ncnc(Nc4ccc(OCc5cccc(F)c5)c(Cl)c4)c3c2)o1` [Compound 101, (S)—N-(4-(3-fluorobenzyl-oxy)-3-chlorophenyl)-6-(5-(1-(allyl-amino)-2-(methylsulfonyl)ethyl)furan-2-yl)quinazolin-4-amine], the negative logarithm of the IC50 (pIC50) with MCF-7 (setting [1]) is 4.98; in the test with A431 (setting [2]), 6.23.
The like results for `C#CCN[C@H](CS(C)(=O)=O)c1ccc(-c2ccc3ncnc(Nc4ccc(OCc5cccc(F)c5)c(Cl)c4)c3c2)o1` [Compound 102, (S)—N-(4-(3-fluorobenzyl-oxy)-3-chlorophenyl)-6-(5-(1-(propargyl-amino)-2-(methylsulfonyl)ethyl)furan-2-yl)quinazolin-4-amine] were, in that order, 5.05 and 6.34.
Regarding `CON[C@H](CS(C)(=O)=O)c1ccc(-c2ccc3ncnc(Nc4ccc(OCc5cccc(F)c5)c(Cl)c4)c3c2)o1` [Compound 103], the pIC50 with MCF-7 (MCF-7 cells) was 5.05; in the test with A431 (A431 cells), 6.32.
The like results for `CON(C)[C@H](CS(C)(=O)=O)c1ccc(-c2ccc3ncnc(Nc4ccc(OCc5cccc(F)c5)c(Cl)c4)c3c2)o1` [Compound 104] were, in that order, 5.05 and 6.20.
For `CS(=O)(=O)C[C@H](N)c1ccc(-c2ccc3ncnc(Nc4ccc(OCc5cccc(F)c5)c(Cl)c4)c3c2)o1` [Compound 105, (R)—N-(4-(3-fluorobenzyl-oxy)-3-chlorophenyl)-6-(5-(1-(amino)-2-(methylsulfonyl)ethyl)furan-2-yl)quinazolin-4-amine], the results for the pIC50 in the test with MCF-7 (setting [1]) and in the test with A431 (setting [2]) were 5.10 and 6.18, respectively.
The matching figures for `CN[C@@H](CS(C)(=O)=O)c1ccc(-c2ccc3ncnc(Nc4ccc(OCc5cccc(F)c5)c(Cl)c4)c3c2)o1` [Compound 106, (R)—N-(4-(3-fluorobenzyl-oxy)-3-chlorophenyl)-6-(5-(1-(methylamino)-2-(methylsulfonyl)ethyl)furan-2-yl)quinazolin-4-amine]: 5.11 and 6.33.
As for `CCN[C@@H](CS(C)(=O)=O)c1ccc(-c2ccc3ncnc(Nc4ccc(OCc5cccc(F)c5)c(Cl)c4)c3c2)o1` [Compound 107, (R)—N-(4-(3-fluorobenzyl-oxy)-3-chlorophenyl)-6-(5-(1-(ethylamino)-2-(methylsulfonyl)ethyl)furan-2-yl)quinazolin-4-amine], the pIC50 was 5.17 with MCF-7 (setting [1]) and 6.24 in the test on A431 (setting [2]).
The like results for `CCCN[C@@H](CS(C)(=O)=O)c1ccc(-c2ccc3ncnc(Nc4ccc(OCc5cccc(F)c5)c(Cl)c4)c3c2)o1` [Compound 108, (R)—N-(4-(3-fluorobenzyl-oxy)-3-chlorophenyl)-6-(5-(1-(propylamino)-2-(methylsulfonyl)ethyl)furan-2-yl)quinazolin-4-amine] were, in that order, 5.23 and 6.28.
`CS(=O)(=O)C[C@H](NCC1CC1)c1ccc(-c2ccc3ncnc(Nc4ccc(OCc5cccc(F)c5)c(Cl)c4)c3c2)o1` [Compound 109, (R)—N-(4-(3-fluorobenzyl-oxy)-3-chlorophenyl)-6-(5-(1-(cyclopropylmethyl-amino)-2-(methylsulfonyl)ethyl)furan-2-yl)quinazolin-4-amine]: the pIC50 in the test on MCF-7 (setting [1]) was 5.21; with A431 (setting [2]), 6.12.
The like results for `CCN(CC)[C@@H](CS(C)(=O)=O)c1ccc(-c2ccc3ncnc(Nc4ccc(OCc5cccc(F)c5)c(Cl)c4)c3c2)o1` [Compound 111, (R)—N-(4-(3-fluorobenzyl-oxy)-3-chlorophenyl)-6-(5-(1-(N,N-diethyl-amino)-2-(methylsulfonyl)ethyl)furan-2-yl)quinazolin-4-amine] were, in that order, 5.17 and 6.16.
The matching figures for `CCCN(CCC)[C@@H](CS(C)(=O)=O)c1ccc(-c2ccc3ncnc(Nc4ccc(OCc5cccc(F)c5)c(Cl)c4)c3c2)o1` [Compound 112, (R)—N-(4-(3-fluorobenzyl-oxy)-3-chlorophenyl)-6-(5-(1-(N,N-dipropyl-amino)-2-(methylsulfonyl)ethyl)furan-2-yl)quinazolin-4-amine]: 5.21 and 6.07.
The matching figures for `CCN(C)[C@@H](CS(C)(=O)=O)c1ccc(-c2ccc3ncnc(Nc4ccc(OCc5cccc(F)c5)c(Cl)c4)c3c2)o1` [Compound 113, (R)—N-(4-(3-fluorobenzyloxy)-3-chlorophenyl)-6-(5-(1-(N-methyl, N-ethyl-amino)-2-(methylsulfonyl)ethyl)furan-2-yl)quinazolin-4-amine]: 5.15 and 6.12.
For `C=CCN[C@@H](CS(C)(=O)=O)c1ccc(-c2ccc3ncnc(Nc4ccc(OCc5cccc(F)c5)c(Cl)c4)c3c2)o1` [Compound 114, (R)—N-(4-(3-fluorobenzyl-oxy)-3-chlorophenyl)-6-(5-(1-(allyl-amino)-2-(methylsulfonyl)ethyl)furan-2-yl)quinazolin-4-amine], the pIC50 is 5.10 in the test on MCF-7 (setting [1]) and 6.31 with A431 (setting [2]).
The like results for `C#CCN[C@@H](CS(C)(=O)=O)c1ccc(-c2ccc3ncnc(Nc4ccc(OCc5cccc(F)c5)c(Cl)c4)c3c2)o1` [Compound 115, (R)—N-(4-(3-fluorobenzyl-oxy)-3-chlorophenyl)-6-(5-(1-(propargyl-amino)-2-(methylsulfonyl)ethyl)furan-2-yl)quinazolin-4-amine] were, in that order, 5.12 and 6.27.
On to `CON[C@@H](CS(C)(=O)=O)c1ccc(-c2ccc3ncnc(Nc4ccc(OCc5cccc(F)c5)c(Cl)c4)c3c2)o1` [Compound 116], for which the values for the negative-log IC50 (pIC50) in the test with MCF-7 (MCF-7 cells) and with A431 (A431 cells) were 5.32 and 6.36, respectively.
As to `CON(C)[C@@H](CS(C)(=O)=O)c1ccc(-c2ccc3ncnc(Nc4ccc(OCc5cccc(F)c5)c(Cl)c4)c3c2)o1` [Compound 117], the values for the negative logarithm of the IC50 (pIC50) in the test with MCF-7 (MCF-7 cells) and with A431 (A431 cells) were 5.12 and 6.20, respectively.
For `CS(=O)(=O)C[C@H](N)c1cnc(-c2ccc3ncnc(Nc4ccc(OCc5cccc(F)c5)c(Cl)c4)c3c2)s1` [Compound 118, (S)—N-(4-(3-fluorobenzyl-oxy)-3-chlorophenyl)-6-(5-(1-(amino)-2-(methylsulfonyl)ethyl)thiazole-2-yl)quinazolin-4-amine], the results for the pIC50 in the test on MCF-7 (setting [1]) and with A431 (setting [2]) were 5.17 and 6.28, respectively.
In the case of `CN[C@@H](CS(C)(=O)=O)c1cnc(-c2ccc3ncnc(Nc4ccc(OCc5cccc(F)c5)c(Cl)c4)c3c2)s1` [Compound 119], the pIC50 with MCF-7 (MCF-7 cells) was 5.21; with A431 (A431 cells), 6.23.
The matching figures for `CCN[C@@H](CS(C)(=O)=O)c1cnc(-c2ccc3ncnc(Nc4ccc(OCc5cccc(F)c5)c(Cl)c4)c3c2)s1` [Compound 120]: 5.12 and 6.18.

For orientation: pIC50 means the negative decadic logarithm of the IC50, by convention in mol/L.
